Experimental findings from PMC7761903, “Aldehyde Dehydrogenases and Prostate Cancer: Shedding Light on Isoform Distribution to Reveal Druggable Target” (Biomedicines, 2020) are described below.

Holding throughout (type): cell-based, human
One assay has as its system P4E6 cell line. In words: Alamar Blue cell viability, P4E6. The settings on record: for EC50: 72 h exposure, Alamar Blue. The text has this:
(§1) Five different prostate cell lines, including normal cell line PNT2-C2 (Merck), benign prostatic hyperplasia cell line BPH1 (gift from Simon W. Hayward, Evanston, IL, USA), and cancer cell lines including PC-3 (derived from prostate cancer bone metastasis) (ATCC), LNCaP (derived from prostate cancer lymph node metastasis) (ATCC), and P4E6 (derived from localized prostate cancer) (derived in York and available from European Collection of Authenticated Cell Cultures ECACC), as well as two primary malignant cell lines, H796/19 and H798/19 (both Gleason 7 grade cancers) (obtained in York with ethical permission, REC ref 07/H1304/121) were used in the study. Culturing of commercially available cell lines and processing and culturing of primary cells were carried out as previously described. Primary cells were typically used at a passage <5 since they have finite growth and the intention is to maintain them as close to the original tumor as possible.
(§2) AlamarBlue quantitatively measures cell viability since actively metabolizing cells can reduce its active ingredient resazurin to a fluorescent molecule (resorufin) which can be subsequently analyzed on a plate reader. Cells were plated in 96 well plates at a density of 5000 cells/well and left to adhere overnight in 200 μL media. The following day cells were treated with 9 different concentrations of the test drugs in triplicate, ranging from 10^−5 M to 10^−13 M. After 72 h exposure 20 μL of AlamarBlue reagent (diluted 1:10 in the corresponding media for each cell line) was added to each well and incubated at 37 °C for 2 h. Fluorescence intensity was determined using a microplate reader (Polarstar Optima, BMG Labtech) at excitation/emission values 73 of 544/590 nm. EC50 values were calculated using the software GraphPad Prism Version 6 (San Diego, CA, USA).
(Resazurin is reduced to fluorescent resorufin, in cell work by metabolically active cells.)

For assay [1], the system named is PC3 cell line. The experiment in a line: Alamar Blue cell viability, PC3. The settings on record: for EC50: 72 h exposure, Alamar Blue.
Source text: as §1, §2

The test system of the next assay is LNCaP cell line. In words: Alamar Blue cell viability, LNCaP. Conditions: 72 h exposure.
Source text: as §1, §2

Assay [2] has as its system PNT2-C2 normal prostate epithelial cell line. In words: Alamar Blue cell viability, PNT2-C2. Conditions: 72 h exposure.
Source text: as §1, §2

Assay [3] deals with BPH1 benign prostatic hyperplasia cell line. In words: Alamar Blue cell viability, BPH1.
Source text: as §1, §2

Assay [4] concerns PC3 cell line. The experiment in a line: Colony-forming assay, PC3. Conditions: 72 h exposure at EC50, EC50×2, EC50×5. The protocol:
PNT2-C2, BPH1 and PC3 cell lines were plated in 12-well plates with a density of 4 × 10^4 cells/well and left to adhere overnight in 1.00 mL media. The following day cells were treated with 3 different concentrations of the test drugs, based on the EC50 values in cell viability (EC50, EC50×2, EC50×5). After 72 h of exposure, cells were counted and plated into 12 well plates in triplicate with a density of 100 cells/well. At day 8, cells were stained with crystal violet (1% (w/v) crystal violet, 10% (v/v) ethanol in PBS). Colonies consisting of >32 cells were counted (representative of 5 population doublings).

Assay [5] concerns ALDH1A3 gene expression in primary prostate epithelial cell cultures. In words: qPCR ALDH1A3 gene expression after atRA treatment. The settings on record: atRA 100 nM, 72 hours; 1xBPH, 1xBPH-PIN, 2x PCa primary cultures; no statistical test. The protocol:
(§3) RNA extraction was carried out using the RNeasy Mini Kit (Qiagen, Hilden, Germany). The concentration and quality of the eluted RNA were determined using a NanodropTM2000 (Thermo Fisher Scientific, Waltham, MA, USA) spectrophotometer and measuring the 260/280 ratio. Total RNA of 50–2000 ng was reverse transcribed into single-stranded cDNA using the High Capacity cDNA Reverse Transcription Kit (Thermo Fisher Scientific, Waltham, MA, USA). Once the reaction finished, samples were purified using the QIAquick PCR Purification Kit (Qiagen). The concentration and quality of the cDNA was measured by using the NanodropTM2000 spectrophotometer. qPCR was carried out in 25 μL total PCR reaction using the TaqMan Universal PCR Master Mix (Applied Biosystems, Thermo Fisher Scientific, Waltham, MA, USA). The PCR reaction consisted of 12.5 μL of 2× master mix, 1.25 μL of 20× TaqMan Gene Expression Assay Mix (Supplementary Table S1), and 11.25 μL cDNA diluted in dH2O. A 96-well MicroAmp Optical plate (Applied Biosystems) was used and all reactions were run in triplicates. Primers used were obtained from TaqMan Gene Expression Assays (Thermo Fisher Scientific, Waltham, MA, USA). […] The gene expression level relative to internal control RPLP0 was calculated using the formula 2^−∆CT and the fold change in gene expression was worked out using the 2^−∆∆CT method. […]
(In general: Real-time PCR tracks product formation cycle by cycle.)

For assay [6], the system named is ALDH1A1 gene expression in primary prostate epithelial cell cultures. In words: qPCR ALDH1A1 gene expression after atRA treatment. The settings on record: atRA 100 nM, 72 hours; 1xBPH, 1xBPH-PIN, 2x PCa primary cultures; no statistical test. The protocol: as §3

“Also recorded” adds a separate entry of the source.

For the molecule `c1ccc(-c2ccc3nc(-c4ccccc4)cn3c2)cc1` [Compound 3a], the EC50 in the assay with P4E6 cell line is 60.7 nM; in the assay on PC3 cell line [1] it was 239 nM; in the assay with LNCaP cell line, 315 nM; in assay [2] it was 423 nM; in assay [3] (72 h exposure) it was 113 nM.
As for `Fc1ccc(-c2ccc3nc(-c4ccccc4)cn3c2)cc1` [Compound 3b, 6-(4-fluorophenyl)-2-phenylimidazo [1,2-a]pyridine], the EC50 in the assay with P4E6 cell line (Homo sapiens) amounted to 4.04 nM; with PC3 cell line [1] (Homo sapiens, PC-3), 70.9 nM; in the assay with LNCaP cell line (Homo sapiens, LNCaP) it was 240 nM; in assay [2] (Homo sapiens, Epithelial cell), 217 nM; in assay [3] (Homo sapiens, BPH-1, 72 h exposure) it was 41.5 nM. Besides, in the assay on P4E6 cell line (result in words), the “antiproliferative activity against P4E6” value was “antiproliferative activity in the nanomolar range; also recorded: nanomolar efficacy”. The “antiproliferative activity against PC3” value with PC3 cell line [1] (result in words) is given as “antiproliferative activity in the nanomolar range; also recorded: nanomolar efficacy”. In addition, the “colony-forming efficiency PC3” value in the assay on PC3 cell line [4] was “inhibitory efficacy against PC3 colony-forming efficiency”.
`Clc1ccc(-c2ccc3nc(-c4ccccc4)cn3c2)cc1` [Compound 3c]: the EC50 with P4E6 cell line was 33.4 nM; with PC3 cell line [1] it was 322 nM; with LNCaP cell line, 323 nM; in assay [2] it was 325 nM; in assay [3] (72 h exposure), 416 nM.
For `N#Cc1cccc(-c2ccc3nc(-c4ccccc4)cn3c2)c1` [Compound 3d], the EC50 with P4E6 cell line came out at 440 nM; with LNCaP cell line it was 7180 nM; in assay [2], 1720 nM; in assay [3] (72 h exposure) it was 351 nM. Further, the “selectivity of PC3 colony forming inhibition versus PNT2-C2 or BPH-1” value in the assay on PC3 cell line [4] is reported as “selectively inhibited PC3 colony forming more strongly than PNT2-C2 or BPH-1; also recorded: selective inhibition of PC3 colony formation”.
Consider `CC1=C(/C=C/C(C)=C/C=C/C(C)=C/C(=O)O)C(C)(C)CCC1` [atRA], for which the “gene expression for ALDH1A3” value in assay [5] is reported as “increase”. Moreover, the “gene expression for ALDH1A1” value in assay [6] was “no apparent effect”.

The term EC50 denotes the concentration needed to bring the measured effect to its halfway point.
